One may read the MIC as the smallest concentration in the dilution series that meets the test's criterion for growth inhibition. The IC50 is the concentration that gives 50% inhibition.

Consider three compounds from ChEMBL document CHEMBL1155701, “Two novel cyclic peptides with antifungal activity from the cyanobacterium Tolypothrix byssoidea (EAWAG 195)” (J Nat Prod, 2001).

In brackets after ≈: the same amount, converted by molar mass. Non-standard residues stand in square brackets, D forms with d. Residues, ends and D or L forms follow the SMILES beside them. Dhb = C/C=C(\N)C(=O)O

For this assay, the system named is Candida albicans. In words: Antifungal activity against Candida albicans ATCC 26790. The format is functional, organism-based.

`C/C=C1\NC(=O)[C@H](Cc2ccccc2)NC(=O)[C@H]([C@@H](C)CC)NC(=O)[C@H]([C@@H](C)CC)NC(=O)[C@H]([C@@H](C)O)NC(=O)[C@@H](CC(C)C)NC(=O)[C@H](CCCNC(=N)N)NC(=O)[C@H]2CCCN2C(=O)[C@H](C(C)C)NC(=O)[C@H](C(C)C)NC(=O)[C@H]([C@@H](C)O)NC(=O)[C@H]([C@@H](C)OC(C)=O)NC(=O)[C@H](C(C)C)NC1=O` had a minimum inhibitory concentration (MIC) of 32 µg/mL (≈ 21.8 µM).

In the case of `Clc1ccc(COC(Cn2ccnc2)c2ccc(Cl)cc2Cl)c(Cl)c1` (stereo not drawn) [MICONAZOLE], the midpoint of inhibition, the IC50, lay at 8 µg/mL (≈ 19.2 µM).

Compound `C/C=C1\NC(=O)[C@H](C(C)C)NC(=O)[C@H](Cc2ccccc2)NC(=O)[C@H](C(C)C)NC(=O)[C@H](C(C)C)NC(=O)[C@H](C(C)C)NC(=O)[C@H]([C@@H](C)O)NC(=O)[C@H]([C@@H](C)CC)NC(=O)[C@H]([C@@H](C)O)NC(=O)[C@H](C(C)C)NC(=O)[C@H](CCSC)NC(=O)[C@H](Cc2ccc(O)cc2)NC(=O)[C@H](CCCNC(=N)N)NC1=O` (cyclo([Dhb]RYMVTITVVVFV)) showed a minimum inhibitory concentration (MIC) of 64 µg/mL (≈ 42.9 µM).
